Source: PubChem BioAssay (NCI)
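GI50 marks 50% less growth. At the TGI there is no net growth.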

What was measured:
Test in all cases: inhibition of tumour cell growth, NCI panel, 384-well format
[1] = test system: MDA-MB-435 melanoma
[2] = test system: COLO 205 colon
[3] = test system: U251 glioblastoma
[4] = test system: NCI-H460 NSCLC
[5] = test system: MCF7 breast
[6] = test system: 786-0 renal
[7] = test system: SK-MEL-28 melanoma
[8] = test system: A549 NSCLC
[9] = test system: KM12 colon
[10] = test system: IGROV1 ovarian
[11] = test system: OVCAR-3 ovarian
[12] = test system: CCRF-CEM leukemia
[13] = test system: SN12C renal

Compound | GI50 [1] [µM] | TGI [1] [µM] | GI50 [2] [µM] | TGI [2] [µM] | GI50 [3] [µM] | TGI [3] [µM] | GI50 [4] [µM] | TGI [4] [µM] | GI50 [5] [µM] | TGI [5] [µM] | GI50 [6] [µM] | TGI [6] [µM] | GI50 [7] [µM] | TGI [7] [µM] | GI50 [8] [µM] | TGI [8] [µM] | GI50 [9] [µM] | TGI [9] [µM] | GI50 [10] [µM] | TGI [10] [µM] | other results
Cc1nc2ccc(-n3ncc(C(=O)c4cc5ccccc5[nH]4)c3N)cc2[nH]1 | 11.2 | 42.9 | 5.86 | 30.2 | 6.53 | 25.5 | 2.37 | 9.74 | 6.62 | 24.8 | 8.85 | 26.7 | 19.5 | 58.3 | 9.61 | 56.8 | 3.3 | 12.3 | 6 | 22.8 | GI50 [11]: 10.7 µM; TGI [11]: 26 µM; GI50 [12]: 5.85 µM; TGI [12]: 18.7 µM; GI50 [13]: 6.46 µM; TGI [13]: 45.9 µM
CC(C)n1cc(-c2ccc3c(c2)N(C)CC3)c2c(NS(=O)(=O)c3ccn(C)n3)ccnc21 | > 93 | > 100 | > 78.9 | > 100 | 87.1 | > 100 | > 85.7 | > 100 | 56.3 | > 100 | > 100 | > 100 | > 93.5 | > 100 | 47.1 | > 100 | 78 | > 100 | > 74.4 | > 100 | GI50 [11]: 40.5 µM; TGI [11]: > 87.6 µM; GI50 [12]: 45.3 µM; TGI [12]: > 100 µM; GI50 [13]: > 100 µM; TGI [13]: > 100 µM
